Laboratory results published in patent US10597388B2, “Pyridazinone herbicides” (FMC CORPORATION, priority 2014, dated 2020).

Legend:
Test in all cases: Test E greenhouse herbicide test, pre- and postemergence
Format in all cases: in vivo
[1] = test system: lambsquarters (Chenopodium album); conditions: Preemergence
In short: (§1)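 Greenhouse pots; preemergence on silt loam, postemergence on plants 1- to 4-leaf (2 to 18 cm) grown in peat, vermiculite and nutrient medium. Test chemicals formulated in non-phytotoxic solvent with surfactant. Ratings taken after 14 to 21 d.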

[2] = test system: johnsongrass (Sorghum halepense); conditions: Preemergence
In short: as §1

[3] = test system: ragweed (common ragweed, Ambrosia elatior)
In short: as §1

kochia (Kochia scoparia) = test system: kochia (Kochia scoparia)
In short: as §1

[4] = test system: waterhemp (common waterhemp, Amaranthus rudis)
In short: as §1

[5] = test system: crabgrass, large (large crabgrass, Digitaria sanguinalis); conditions: Preemergence
In short: as §1

[6] = test system: nutsedge, yellow (yellow nutsedge, Cyperus esculentus); conditions: Preemergence
In short: as §1

[7] = test system: Italian ryegrass (Lolium multiflorum)
In short: as §1

[8] = test system: sandbur (southem sandbur, Cenchrus echinatus)
In short: as §1

[9] = test system: barnyardgrass (Echinochloa crus-galli)
In short: as §1

[10] = test system: panicum, fall (fall panicum, Panicum dichotomiflorum)
In short: as §1

[11] = test system: foxtail, giant (giant foxtail, Setaria faberii); conditions: Preemergence
In short: as §1

[12] = test system: foxtail, green (green foxtail, Setaria viridis); conditions: Preemergence
In short: as §1

[13] = test system: dayflower (Virginia (VA) dayflower, Commelina virginica)
In short: as §1

[14] = test system: velvetleaf (Abutilon theophrasti); conditions: Preemergence
In short: as §1

[15] = test system: beggarticks (hairy beggarticks, Bidens pilosa)
In short: as §1

[16] = test system: crabgrass, Brazilian (Brazilian crabgrass, Digitaria horizontalis)
In short: as §1

[17] = 62 g ai/ha, scale 0 to 100 (0 no effect, 100 complete control)
[18] = 125 g ai/ha, scale 0 to 100 (0 no effect, 100 complete control)
[19] = 31 g ai/ha, scale 0 to 100, 0 no effect, 100 complete control
[20] = 250 g ai/ha, visual, scale 0 no effect to 100 complete control
[21] = 62 g ai/ha, Postemergence, scale 0 to 100 (0 no effect, 100 complete control)
[22] = 62 g ai/ha, Preemergence, scale 0 to 100 (0 no effect, 100 complete control)
[23] = 125 g ai/ha, Postemergence, scale 0 to 100 (0 no effect, 100 complete control)
[24] = 125 g ai/ha, Preemergence, scale 0 to 100 (0 no effect, 100 complete control)
[25] = 250 g ai/ha, Postemergence, scale 0 to 100 (0 no effect, 100 complete control)
[26] = Postemergence, 31 g ai/ha, visual, scale 0 no effect to 100 complete control
[27] = Preemergence, 31 g ai/ha, scale 0 to 100, 0 no effect, 100 complete control
[28] = Preemergence, 250 g ai/ha, visual, scale 0 no effect to 100 complete control

## Cc1cc(C)c2sc(C)c(-c3c(OC(=O)OCCCl)c(C)nn(C)c3=O)c2c1 [Compound 85]
[1]; [17]
  Plant response rating, Lambsquarters: 100
[1]; [18]
  Plant response rating, Lambsquarters: 100
[1]; [19]
  Plant response rating, Lambsquarters: 70
[1]; [20]
  Plant response rating, Lambsquarters: 100
[2]; [17]
  Plant response rating, Johnsongrass: 0
[2]; [18]
  Plant response rating, Johnsongrass: 0
[2]; [19]
  Plant response rating, Johnsongrass: 0
[2]; [20]
  Plant response rating, Johnsongrass: 0
[3]; [21]
  Plant response rating, Ragweed: 50
[3]; [22]
  Plant response rating, Ragweed: 80
[3]; [23]
  Plant response rating, Ragweed: 60
[3]; [24]
  Plant response rating, Ragweed: 90
[3]; [25]
  Plant response rating, Ragweed: 85
[3]; [26]
  Plant response rating, Ragweed: 50
[3]; [27]
  Plant response rating, Ragweed: 60
[3]; [28]
  Plant response rating, Ragweed: 98
Kochia (Kochia scoparia); [21]
  Plant response rating, Kochia: 70
Kochia (Kochia scoparia); [22]
  Plant response rating, Kochia: 0
Kochia (Kochia scoparia); [23]
  Plant response rating, Kochia: 80
Kochia (Kochia scoparia); [24]
  Plant response rating, Kochia: 0
Kochia (Kochia scoparia); [25]
  Plant response rating, Kochia: 80
Kochia (Kochia scoparia); [26]
  Plant response rating, Kochia: 60
Kochia (Kochia scoparia); [27]
  Plant response rating, Kochia: 0
Kochia (Kochia scoparia); [28]
  Plant response rating, Kochia: 98
[4]; [22]
  Plant response rating, Waterhemp: 80
[4]; [23]
  Plant response rating, Waterhemp: 65
[4]; [24]
  Plant response rating, Waterhemp: 70
[4]; [25]
  Plant response rating, Waterhemp: 90
[4]; [26]
  Plant response rating, Waterhemp: 50
[4]; [27]
  Plant response rating, Waterhemp: 35
[4]; [28]
  Plant response rating, Waterhemp: 85
[5]; [17]
  Plant response rating, Crabgrass, Large: 0
[5]; [18]
  Plant response rating, Crabgrass, Large: 0
[5]; [19]
  Plant response rating, Crabgrass, Large: 0
[5]; [20]
  Plant response rating, Crabgrass, Large: 25
[6]; [17]
  Plant response rating, Nutsedge, Yellow: 35
[6]; [18]
  Plant response rating, Nutsedge, Yellow: 35
[6]; [20]
  Plant response rating, Nutsedge, Yellow: 65
[7]; [21]
  Plant response rating, Ryegrass, Italian: 60
[7]; [22]
  Plant response rating, Ryegrass, Italian: 80
[7]; [23]
  Plant response rating, Ryegrass, Italian: 75
[7]; [24]
  Plant response rating, Ryegrass, Italian: 95
[7]; [25]
  Plant response rating, Ryegrass, Italian: 80
[7]; [26]
  Plant response rating, Ryegrass, Italian: 50
[7]; [27]
  Plant response rating, Ryegrass, Italian: 80
[7]; [28]
  Plant response rating, Ryegrass, Italian: 100
[8]; [22]
  Plant response rating, Sandbur: 50
[8]; [23]
  Plant response rating, Sandbur: 70
[8]; [24]
  Plant response rating, Sandbur: 80
[8]; [25]
  Plant response rating, Sandbur: 70
[8]; [26]
  Plant response rating, Sandbur: 40
[8]; [27]
  Plant response rating, Sandbur: 0
[8]; [28]
  Plant response rating, Sandbur: 90
[9]; [21]
  Plant response rating, Barnyardgrass: 30
[9]; [22]
  Plant response rating, Barnyardgrass: 0
[9]; [23]
  Plant response rating, Barnyardgrass: 20
[9]; [24]
  Plant response rating, Barnyardgrass: 30
[9]; [25]
  Plant response rating, Barnyardgrass: 30
[9]; [26]
  Plant response rating, Barnyardgrass: 20
[9]; [27]
  Plant response rating, Barnyardgrass: 0
[9]; [28]
  Plant response rating, Barnyardgrass: 35
[10]; [21]
  Plant response rating, Panicum, Fall: 75
[10]; [22]
  Plant response rating, Panicum, Fall: 85
[10]; [23]
  Plant response rating, Panicum, Fall: 80
[10]; [24]
  Plant response rating, Panicum, Fall: 98
[10]; [25]
  Plant response rating, Panicum, Fall: 95
[10]; [26]
  Plant response rating, Panicum, Fall: 75
[10]; [27]
  Plant response rating, Panicum, Fall: 95
[10]; [28]
  Plant response rating, Panicum, Fall: 100
[11]; [17]
  Plant response rating, Foxtail, Giant: 65
[11]; [18]
  Plant response rating, Foxtail, Giant: 95
[11]; [19]
  Plant response rating, Foxtail, Giant: 15
[11]; [20]
  Plant response rating, Foxtail, Giant: 100
[12]; [17]
  Plant response rating, Foxtail, Green: 25
[12]; [18]
  Plant response rating, Foxtail, Green: 15
[12]; [19]
  Plant response rating, Foxtail, Green: 0
[12]; [20]
  Plant response rating, Foxtail, Green: 100
[13]; [21]
  Plant response rating, Dayflower, VA: 60
[13]; [22]
  Plant response rating, Dayflower, VA: 0
[13]; [23]
  Plant response rating, Dayflower, VA: 60
[13]; [24]
  Plant response rating, Dayflower, VA: 30
[13]; [25]
  Plant response rating, Dayflower, VA: 80
[13]; [26]
  Plant response rating, Dayflower, VA: 50
[13]; [27]
  Plant response rating, Dayflower, VA: 0
[13]; [28]
  Plant response rating, Dayflower, VA: 75
[14]; [17]
  Plant response rating, Velvetleaf: 30
[14]; [18]
  Plant response rating, Velvetleaf: 70
[14]; [19]
  Plant response rating, Velvetleaf: 0
[14]; [20]
  Plant response rating, Velvetleaf: 95
[15]; [21]
  Plant response rating, Beggarticks: 100
[15]; [22]
  Plant response rating, Beggarticks: 100
[15]; [23]
  Plant response rating, Beggarticks: 100
[15]; [24]
  Plant response rating, Beggarticks: 100
[15]; [25]
  Plant response rating, Beggarticks: 100
[15]; [26]
  Plant response rating, Beggarticks: 90
[15]; [27]
  Plant response rating, Beggarticks: 90
[15]; [28]
  Plant response rating, Beggarticks: 100
[16]; [21]
  Plant response rating, Crabgrass, Brazil: 30
[16]; [22]
  Plant response rating, Crabgrass, Brazil: 50
[16]; [23]
  Plant response rating, Crabgrass, Brazil: 50
[16]; [24]
  Plant response rating, Crabgrass, Brazil: 80
[16]; [25]
  Plant response rating, Crabgrass, Brazil: 50
[16]; [26]
  Plant response rating, Crabgrass, Brazil: 15
[16]; [27]
  Plant response rating, Crabgrass, Brazil: 10
[16]; [28]
  Plant response rating, Crabgrass, Brazil: 90

## C#CCOC(=O)Oc1c(C)nn(C)c(=O)c1-c1c(C)sc2ccc(C)cc12 [Compound 87]
[1]; [17]
  Plant response rating, Lambsquarters: 100
[1]; [18]
  Plant response rating, Lambsquarters: 100
[1]; [19]
  Plant response rating, Lambsquarters: 100
[1]; [20]
  Plant response rating, Lambsquarters: 100
[2]; [17]
  Plant response rating, Johnsongrass: 65
[2]; [18]
  Plant response rating, Johnsongrass: 70
[2]; [20]
  Plant response rating, Johnsongrass: 75
[3]; [22]
  Plant response rating, Ragweed: 95
[3]; [24]
  Plant response rating, Ragweed: 98
[3]; [27]
  Plant response rating, Ragweed: 98
[3]; [28]
  Plant response rating, Ragweed: 100
Kochia (Kochia scoparia); [22]
  Plant response rating, Kochia: 100
Kochia (Kochia scoparia); [24]
  Plant response rating, Kochia: 100
Kochia (Kochia scoparia); [27]
  Plant response rating, Kochia: 65
Kochia (Kochia scoparia); [28]
  Plant response rating, Kochia: 100
[4]; [22]
  Plant response rating, Waterhemp: 90
[4]; [24]
  Plant response rating, Waterhemp: 90
[4]; [27]
  Plant response rating, Waterhemp: 75
[4]; [28]
  Plant response rating, Waterhemp: 100
[5]; [17]
  Plant response rating, Crabgrass, Large: 0
[5]; [18]
  Plant response rating, Crabgrass, Large: 65
[5]; [19]
  Plant response rating, Crabgrass, Large: 0
[5]; [20]
  Plant response rating, Crabgrass, Large: 65
[6]; [17]
  Plant response rating, Nutsedge, Yellow: 60
[6]; [18]
  Plant response rating, Nutsedge, Yellow: 65
[6]; [19]
  Plant response rating, Nutsedge, Yellow: 0
[6]; [20]
  Plant response rating, Nutsedge, Yellow: 60
[7]; [22]
  Plant response rating, Ryegrass, Italian: 95
[7]; [24]
  Plant response rating, Ryegrass, Italian: 98
[7]; [27]
  Plant response rating, Ryegrass, Italian: 75
[7]; [28]
  Plant response rating, Ryegrass, Italian: 100
[8]; [22]
  Plant response rating, Sandbur: 65
[8]; [24]
  Plant response rating, Sandbur: 75
[8]; [27]
  Plant response rating, Sandbur: 25
[8]; [28]
  Plant response rating, Sandbur: 85
[9]; [22]
  Plant response rating, Barnyardgrass: 0
[9]; [24]
  Plant response rating, Barnyardgrass: 10
[9]; [27]
  Plant response rating, Barnyardgrass: 0
[9]; [28]
  Plant response rating, Barnyardgrass: 35
[10]; [22]
  Plant response rating, Panicum, Fall: 90
[10]; [24]
  Plant response rating, Panicum, Fall: 100
[10]; [27]
  Plant response rating, Panicum, Fall: 95
[10]; [28]
  Plant response rating, Panicum, Fall: 98
[11]; [17]
  Plant response rating, Foxtail, Giant: 65
[11]; [18]
  Plant response rating, Foxtail, Giant: 70
[11]; [19]
  Plant response rating, Foxtail, Giant: 25
[11]; [20]
  Plant response rating, Foxtail, Giant: 95
[12]; [17]
  Plant response rating, Foxtail, Green: 20
[12]; [18]
  Plant response rating, Foxtail, Green: 60
[12]; [19]
  Plant response rating, Foxtail, Green: 20
[12]; [20]
  Plant response rating, Foxtail, Green: 80
[13]; [22]
  Plant response rating, Dayflower, VA: 0
[13]; [24]
  Plant response rating, Dayflower, VA: 10
[13]; [27]
  Plant response rating, Dayflower, VA: 0
[13]; [28]
  Plant response rating, Dayflower, VA: 35
[14]; [17]
  Plant response rating, Velvetleaf: 60
[14]; [18]
  Plant response rating, Velvetleaf: 90
[14]; [19]
  Plant response rating, Velvetleaf: 0
[14]; [20]
  Plant response rating, Velvetleaf: 95
[15]; [22]
  Plant response rating, Beggarticks: 100
[15]; [24]
  Plant response rating, Beggarticks: 100
[15]; [27]
  Plant response rating, Beggarticks: 90
[15]; [28]
  Plant response rating, Beggarticks: 100
[16]; [22]
  Plant response rating, Crabgrass, Brazil: 80
[16]; [24]
  Plant response rating, Crabgrass, Brazil: 90
[16]; [27]
  Plant response rating, Crabgrass, Brazil: 60
[16]; [28]
  Plant response rating, Crabgrass, Brazil: 100
